Assay [1] relates to K^+ channel, rabbit mesenteric artery (RMA) rings. The assay is described as follows: Inhibition of pinacidil-induced relaxation of norepinephrine-contracted isolated rabbit mesenteric artery (RMA) rings (K^+ channel antagonism). Particulars: Oryctolagus cuniculus, 0.25 h, pinacidil 1 μM, norepinephrine 5 μM, read-out: RMA K^+ Antagonism % I (percent inhibition of pinacidil relaxation at 15 minutes); for inhibition at 0.1 µM: conc. 0.1 μM; for inhibition at 0.3 µM: conc. 0.3 μM; for inhibition at 10 µM: conc. 10 μM. It counts as cell-based. The procedure: The results for potassium channel blocking were obtained by using isolated rabbit mesenteric artery (RMA) procedures. Norepinephrine (5 μM) was used to contract the RMA rings twice, with an hour separating the two contractions. During this hour the tissues equilibrated in physiological salt solution at a resting tension of 1 gram. Upon the plateau of the second contraction 1 μM pinacidil was added to all tissues and the resulting relaxation time course was studied for thirty minutes. […] By studying the ability of the test compounds to inhibit this pinacidil-induced relaxation, the degree of potassium antagonism could be determined. The compounds were applied to the tissues for one hour between the two contractions and the pinacidil-induced relaxation was studied in the continuing presence of the compounds. Thus, the total time of pretreatment with the test compound was 75 minutes before the addition of pinacidil.
(§1) Data for K^+ channel antagonist activity on rabbit mesenteric artery (RMA) and natriuretic efficacy after […] (IP) administration to rats are collected in Table II.
^a Lowest inhibitor concentration (μM) that gave greater than 20%
inhibition or lowest concentration tested.
^b This is a measure of a compound's ability to inhibit the relaxatio
of norepinephrine (5 μM) contracted rabbit mesenteric artery rings by
pinacidil (1 μM). It is expressed as percent inhibition. Compounds wit
65% or greater inhibition at 5 μM are considered to be active, with
20-65% inhibition moderately active and with less than 20% inhibition

Assay [2] can be described thus: Diuretic screen: urinary Na^+ excretion after IP administration to rats. It counts as in vivo, rat (female Harlan Sprague-Dawley). Particulars: rat, IP, 5, 15 and 30 mg/kg, 5 hour test period. How it is done:
as §1
The diuretic activity was determined in female Harlan Sprague-Dawley rats weighing 200 to 230 grams that were fasted 15 hours overnight, and then were deprived of both food and water for an additional hour prior to dosing. […] It approximates the area under the dose response curve. The vehicle was 20% dimethylacetamide (DMA; v/v) in a pH 7.4 phosphate buffer (0.58% Na2 HPO4 and 0.13% NaH2 PO4.H2 O). Sufficient drug was suspended in 1 to 2 ml of this vehicle to deliver doses of 5, 15 and 30 mg/kg in a volume of 0.5 ml (2-4 rats/dose). At least 2 vehicle control rats, and, for most tests, 2 standard diuretic treated rats were included in each experiment. Standards used as comparators included the K^+ retaining diuretic amiloride and the K^+ wasting diuretics furosemide, hydrochlorothiazide and metolazone.
Following their IP doses, the rats' urinary bladders were gently compressed to eliminate all pretreatment urine, and two identically treated rats were placed in a stainless steel metabolism cage equipped with a graduated test tube to collect voided urine. At 2 and 5 hours post treatment, the rats' bladders were again compressed, the volume of urine excreted by the pair of rats was recorded, and aliquots of urine were retained for analysis of Na^+ and K^+ concentrations with a NOVA-13 selective ion analyzer. Following the 5 hour urine collection, the rats were returned to their stock cages, and at least 1 week of recovery was allowed between a maximum of 3 diuretic tests.
The electrolyte concentrations detected in these urine samples were manually multiplied by their respective volumes to determine total milliequivalent (mEq) excretion of Na^+ and K^+ per pair of rats, and the results obtained with multiple racks per drug treatment were averaged. Increases in urinary Na^+ excretion of 50% or more above the pooled control tests were regarded as reflecting activity.
^c This represents the net increase (above control) in urinary
Na^+ excretion (μEq) for the 5 hour test period divided by the
total of the three drug doses (mg/kg) administered IP in the stage II
diuretic screen in rats. It approximates the area under the dose response

Assay [3] deals with K^+ channel, rabbit mesenteric artery (RMA) rings. Particulars: pinacidil 1 μM, norepinephrine-contracted RMA rings; cited from earlier work.

Each structure is given as a SMILES string.

Regarding `N#CN=C(Nc1cnc(Cl)c(N)c1)NC1(c2ccccc2)CCC1` [Compound 1, N-(5-Amino-6-chloro-3-pyridyl)-N"-cyano-N'-(1-phenylcyclobutyl)guanidine], the inhibition at 0.1 µM in assay [1] is 90%. The “5 h Net Natriuretic Efficacy (net increase above control in urinary Na^+ excretion divided by total of three doses)” value in assay [2] was found to be 39 μEq Na^+ /mg/kg. On to `Cc1nc(N)ccc1NC(=NC#N)NC1(c2ccccc2)CCC1` [Compound 2, N-(6-Amino-2-methyl-3-pyridyl)-N"-cyano-N'-(1-phenylcyclobutyl)guanidine, methanol solvate], for which the inhibition at 0.3 µM in assay [1] is 96%. In addition, in assay [2], the “5 h Net Natriuretic Efficacy (net increase above control in urinary Na^+ excretion divided by total of three doses)” value came to 77 μEq Na^+ /mg/kg. For `N#CN=C(Nc1cncc(N)c1)NC1(c2ccccc2)CCC1` [Compound 3, N-(5-Amino-3-pyridyl)-N"-cyano-N'-(1-phenylcyclobutyl)guanidine], in that order: 93% and 50 μEq Na^+ /mg/kg.

With `CN(C)c1ncccc1NC(=NC#N)NC1(c2ccccc2)CCC1` [Compound 4, N-[2-(Dimethylamino)-3-pyridyl]-N"-cyano-N'-(1-phenylcyclobutyl)guanidine], the inhibition at 2 µM in assay [1] (conc. 2.0 μM) stood at 87%. For the same compound, the “5 h Net Natriuretic Efficacy (net increase above control in urinary Na^+ excretion divided by total of three doses)” value in assay [2] amounted to 10 μEq Na^+ /mg/kg. Turning to `C[C@@H](NC(=NC#N)Nc1cccnc1N(C)C)c1ccccc1` [Compound 5, (R)-N-[2-(Dimethylamino)-3-pyridyl]-N"-cyano-N'-(1-phenylethyl)guanidine], the inhibition at 5 µM in assay [1] (conc. 5 μM) is 17.4%. Moreover, the “5 h Net Natriuretic Efficacy (net increase above control in urinary Na^+ excretion divided by total of three doses)” value in assay [2] turned out to be 15 μEq Na^+ /mg/kg. With `CC[C@@H](N=C(NC#N)Nc1cccnc1Cl)c1ccccc1` [Compound 6, (R)-N-(2-chloro-3-pyridyl)-N'-cyano-N"-(1-phenylpropyl)guanidine], the inhibition at 0.1 µM in assay [1] worked out at 77.5%. Moreover, the “5 h Net Natriuretic Efficacy (net increase above control in urinary Na^+ excretion divided by total of three doses)” value in assay [2] amounted to 48 μEq Na^+ /mg/kg.

Regarding `N#CN=C(Nc1ccc(NCCF)nc1)NC1(c2ccccc2)CCC1` [Compound 7, N-[6(2-Fluoroethylamino)-3-pyridyl]-N"-cyano-N'-(1-phenylcyclobutyl)guanidine], in assay [1] (conc. 1.0 μM), the inhibition at 1 µM is 24.3%. The “5 h Net Natriuretic Efficacy (net increase above control in urinary Na^+ excretion divided by total of three doses)” value in assay [2] is 60 μEq Na^+ /mg/kg.

Turning to `CC[C@@H](NC(=NC#N)Nc1ccc(C)nc1)c1ccccc1` [Compound 8, (R)-N-(6-Methyl-3-pyridyl)-N"-cyano-N'-(1-phenylpropyl)guanidine], the inhibition at 10 µM in assay [1] stood at 84.1%. In assay [2], the “5 h Net Natriuretic Efficacy (net increase above control in urinary Na^+ excretion divided by total of three doses)” value worked out at 25 μEq Na^+ /mg/kg.

As for `CC[C@@H](NC(=NC#N)Nc1cncc(Br)c1)c1ccccc1` [Compound 9, (R)-N-(5-Bromo-3-pyridyl)-N"-cyano-N'-(1-phenylpropyl)guanidine], the inhibition at 10 µM in assay [1] was determined as 94.6%. In addition, in assay [2], the “5 h Net Natriuretic Efficacy (net increase above control in urinary Na^+ excretion divided by total of three doses)” value is on record as 12 μEq Na^+ /mg/kg. For `CC[C@@H](NC(=NC#N)Nc1ccc(NCCF)nc1)c1ccccc1` [Compound 10, (R)-N-[6-(2-Fluoroethylamino)-3-pyridyl]-N"-cyano-N'-(1-phenylpropyl)guanidine], in that order: 72.3% and 34 μEq Na^+ /mg/kg.

`CC[C@@H](NC(=NC#N)Nc1cccnc1C)c1ccccc1` [Compound 11, (R)-N-(2-Methyl-3-pyridyl)-N"-cyano-N'-(1-phenylpropyl)guanidine]: the inhibition at 10 µM in assay [1] is 91.6%. In addition, the “5 h Net Natriuretic Efficacy (net increase above control in urinary Na^+ excretion divided by total of three doses)” value in assay [2] is 25 μEq Na^+ /mg/kg. With `CC[C@@H](NC(=NC#N)Nc1cncc(N)c1)c1ccccc1` [Compound 12, (R)-N-(5-Amino-3-pyridyl)-N"-cyano-N'-(1-phenylpropyl)guanidine], in assay [1], the inhibition at 10 µM was found to be 85.8%. The “5 h Net Natriuretic Efficacy (net increase above control in urinary Na^+ excretion divided by total of three doses)” value in assay [2] worked out at 26 μEq Na^+ /mg/kg. Consider `CC(=O)Nc1cncc(NC(=NC#N)NC2(c3ccccc3)CCC2)c1` [Compound 13, N-(5-Acetylamino-3-pyridyl)-N"-cyano-N'-(1-phenylcyclobutyl)guanidine], for which, in assay [1], the inhibition at 10 µM was found to be 6.4%. Besides, in assay [2], the “5 h Net Natriuretic Efficacy (net increase above control in urinary Na^+ excretion divided by total of three doses)” value was found to be 15 μEq Na^+ /mg/kg. In the case of `CC[C@@H](NC(=NC#N)Nc1ccc(NS(C)(=O)=O)nc1)c1ccccc1` [Compound 14, (R)-N-(6-Methanesulfonylamino-3-pyridyl)-N"-cyano-N'-(1-phenylpropyl)guanidine], the inhibition at 30 µM in assay [1] (conc. 30 μM) turned out to be 2.3%. The “5 h Net Natriuretic Efficacy (net increase above control in urinary Na^+ excretion divided by total of three doses)” value in assay [2] is listed as 21 μEq Na^+ /mg/kg. `CC(N/C(=N\C#N)Nc1ccncc1)C(C)(C)C` (centres unmarked) [pinacidil]: the “K^+ channel dependent vasodilation by pinacidil” value in assay [3] was “maximal K^+ channel dependent vasodilation”.
